Patent US11273217B2, “Cancer treatment composition combining anti-CD26 antibody and other anticancer agent” (Y's AC Co., Ltd., priority 2015, dated 2022)

Experiments:
[1] = system: H2452 cells; experiment: MTT cell growth assay, H2452; type: cell-based; conditions: 3×10^−8 M or 10^−7 M gemcitabine with cisplatin 0-1 μM and pemetrexed 0-0.3 μM; day 2
Procedure: (§1) MESO1 or H2452 cells (2×10^3 cells/well) were inoculated to a 96-well plate. One hour later, cisplatin or pemetrexed was added thereto at 10^−9, 10^−8, 10^−7, 10^−6, 10^−5, or 10^−4 M (n=6). At day 2, MTT assay was conducted.
H2452 cells (2×10^3 cells/well) were inoculated to a 96-well plate. One hour later, the combination of 0.03, 0.3, or 1 μM cisplatin and 0.1, 3, or 10 μg/ml YS110, or the combination of 0.01, 0.1, or 0.3 μM pemetrexed and 0.1, 3, or 10 μg/ml YS110 was added thereto (n=6). At day 2, MTT assay was conducted. Significant difference was tested by two-tailed t-test (vs Cont).
(§2) MESO1 cells (2×10^3 cells/well) or H2452 cells (2×10^3 cells/well) were inoculated to a 96-well plate. One hour later, 0.3 μM cisplatin-0.1 μM pemetrexed combination, or YS110 (10 μg/ml) plus the 0.3 μM cisplatin-0.1 μM pemetrexed combination was added thereto (n=6). At day 2, MTT assay was conducted. Significant difference was tested by two-tailed t-test (vs Cont).
(§3) Gemcitabine was studied for its effect on the growth of a mesothelioma cell line. A mesothelioma cell line MESO1, JMN, H2452, or H226 (2×10^3 cells/well) was inoculated to a 96-well plate. One hour later, gemcitabine (10^−9, 10^−8, 10^−7, 10^−6, 10^−5, or 10^−4 M) was added thereto (N=6). 2 days later, MTT assay was conducted. Significant difference was tested by two-tailed t-test (vs Cont).
H2452 cells (2×10^3 cells/well) were inoculated to a 96-well plate. One hour later, gemcitabine (0, 10^−8, 3×10^−8, or 10^−7 M) and YS110 (0, 1, 3, or 10 μg/ml) were added thereto in combination. At day 2, MTT assay was conducted. Significant difference was tested by two-tailed t-test (vs Cont). Next, interaction in concomitant use of medications was studied (n=6). The interaction between YS110 and gemcitabine used concomitantly was analyzed by two-way ANOVA.
(§4) MESO1, JMN, H2452 or H226 cells (2×10^3 cells/well were inoculated to a 96-well plate. One hour later, 3×10^−8 M or 10^−7 M gemcitabine was added thereto by concomitant use with the combination of cisplatin (0, 0.1, 0.3, or 1 μM) and pemetrexed (0, 0.03, 0.1, or 0.3 μM) (n=6). At day 2, MTT assay was conducted.
(§5) The growth inhibitory effect of gemcitabine (10^−9 to 10^−4 M) was compared using MESO1, H2452, JMN, and H226 cell lines.

[2] = system: H226 cells; experiment: MTT cell growth assay, H226; type: cell-based
Procedure: as §3
H226 cells (2×10^3 cells/well) were inoculated to a 96-well plate. One hour later, gemcitabine (0, 10^−8, 3×10^−8, or 10^−7 M) and YS110 (0, 1, 3, or 10 μg/ml) were added thereto in combination. At day 2, MTT assay was conducted. Significant difference was tested by two-tailed t-test (vs Cont). Next, interaction in concomitant use of medications was studied (n=6). The interaction between YS110 and gemcitabine used concomitantly was analyzed by two-way ANOVA.
as §4, §5

[3] = system: JMN cells; experiment: MTT cell growth assay, JMN; type: cell-based
Procedure: as §3
JMN cells (2×10^3 cells/well) were inoculated to a 96-well plate. One hour later, gemcitabine (0, 3×10^−10, 10^−9, or 3×10^−8 M) and YS110 (0, 1, 3, or 10 μg/ml) were added thereto in combination. At day 2, MTT assay was conducted. Significant difference was tested by two-tailed t-test (vs Cont). Next, interaction in concomitant use of medications was studied (n=6). The interaction between YS110 and gemcitabine used concomitantly was analyzed by two-way ANOVA.
as §4
(§6) The growth inhibitory effects of cisplatin (10^−9 to 10^−4 M) and pemetrexed (10^−9 to 10^−4 M) were compared using the MESO1 and JMN cell lines.
as §5

[4] = system: MESO1 cells; experiment: MTT cell growth assay, MESO1; type: cell-based; conditions: 3×10^−8 M or 10^−7 M gemcitabine with cisplatin 0-1 μM and pemetrexed 0-0.3 μM; day 2
Procedure: as §1
MESO1 cells (2×10^3 cells/well) were inoculated to a 96-well plate. One hour later, the combination of 0.3, 3, or 10 μM cisplatin and 0.1, 3, or 10 μg/ml YS110, or the combination of 0.03, 0.3, or 1 μM pemetrexed and 0.1, 3, or 10 μg/ml YS110 was added thereto. At day 2, MTT assay was conducted. Significant difference was tested by two-tailed t-test (vs Cont).
as §2, §3
MESO1 cells (2×10^3 cells/well) were inoculated to a 96-well plate. One hour later, gemcitabine (0, 10^−8, 3×10^−8, or 10^−7 M) and YS110 (0, 1, 3, or 10 μg/ml) were added thereto in combination. At day 2, MTT assay was conducted. Significant difference was tested by two-tailed t-test (vs Cont). Next, interaction in concomitant use of medications was studied (n=6). The interaction between YS110 and gemcitabine used concomitantly was analyzed by two-way ANOVA.
as §4, §6, §5

[5] = system: H226; experiment: In vivo growth of epithelioid mesothelioma cell H226 in SCID mice (tumor weight); conditions: YS110 10 mg/kg, gemcitabine 20 mg/kg, intraperitoneal, days 2 and 4; day 7
Procedure: H226 (3.8×10^5 cells/animal) was subcutaneously transplanted to the backs of female SCID mice. The day of transplantation was defined as day 0. YS110 (10 mg/kg), gemcitabine (20 mg/kg), or YS110 (10 mg/kg)+gemcitabine (20 mg/kg) was intraperitoneally administered to the mice twice (days 2 and 4) (n=6). At day 7, their tumors were excised, and the tumor weights were measured. Significant difference was tested by two-tailed t-test (vs Cont). The interaction between YS110 and gemcitabine used concomitantly was analyzed by two-way ANOVA.

[6] = system: JMN cells; experiment: In vivo JMN cell growth in SCID mice (tumor weight); conditions: YS110 10 mg/kg, gemcitabine 10 mg/kg, intraperitoneal, days 2 and 4; day 7
[7] = 3×10^−8 M or 10^−7 M gemcitabine with cisplatin 0-1 μM and pemetrexed 0-0.3 μM, day 2

Nc1ccn([C@@H]2O[C@H](CO)[C@@H](O)C2(F)F)c(=O)n1 [gemcitabine]
effect of gemcitabine on the growth inhibitory action of cisplatin-pemetrexed [1]: did not potentiate | effect of gemcitabine on the growth inhibitory action of cisplatin-pemetrexed [2, 7]: did not potentiate | cell growth, gemcitabine dose-response compared among mesothelioma cell lines (in words) ([2]; 10^−9 to 10^−4 M, 2 days): more strongly suppressed the growth | growth inhibitory effect compared between H2452 and H226 ([2]; H2452 (CD9+) vs H226 (CD9−), 10^−9 to 10^−4 M): significantly stronger growth inhibitory effect on H226 than on H2452 | effect of gemcitabine on the growth inhibitory action of cisplatin-pemetrexed [3, 7]: did not potentiate | cell growth, gemcitabine dose-response compared among mesothelioma cell lines (in words) ([3]; 10^−9 to 10^−4 M, 2 days): more strongly suppressed the growth | growth inhibitory effect compared between MESO1 and JMN ([3]; MESO1 (CD9+) vs JMN (CD9−), 10^−9 to 10^−4 M): significantly stronger growth inhibitory effect on JMN than on MESO1 | effect of gemcitabine on the growth inhibitory action of cisplatin-pemetrexed [4]: did not potentiate | inhibitory effect (tumor weight) [5]: 29% | inhibitory effect (tumor weight) [6]: 29%
